From patent US20250171392A1, “CRYSTALLIZATION OF 4-HYDROXYACETOPHENONE FROM ETHANOL AND ETHYL ACETATE” (SYMRISE AG, priority 2022, published 2025)

What was measured:
Aspergillus brasiliensis = details: when used in cosmetics; Daily Chemical Industry: 2015, 45:269; cited from earlier work
Pseudomonas aeruginosa = details: when used in cosmetics; Daily Chemical Industry: 2015, 45:269; cited from earlier work
[1] = Solubility testing (dissolution time) of purified 4-hydroxyacetophenone (0.5 wt.-%) in cold 1,2-pentanediol (5 wt.-%) in water; format: physicochemical; details: for Time needed until purified 4-HAP is fully dissolved: 0.5 wt.-% 4-HAP, 5 wt.-% 1,2-pentanediol, 94.50 wt.-% water, solvent at 17.5-18.5° C., stirred at 500 rpm at 20-21° C.
[2] = Solubility testing (dissolution time) of purified 4-hydroxyacetophenone (0.5 wt.-%) in cold water; format: physicochemical; details: for Time needed until purified 4-HAP is fully dissolved: 0.5 wt.-% 4-HAP, 99.50 wt.-% water, solvent at 17.5-18.5° C., stirred at 500 rpm at 20-21° C.
[3] = Solubility testing (dissolution time) of purified 4-hydroxyacetophenone (0.5 wt.-%) in cold 1,2-pentanediol (3 wt.-%) and glycerin (5 wt.-%) in water; format: physicochemical; details: for Time needed until purified 4-HAP is fully dissolved: 0.5 wt.-% 4-HAP, 3 wt.-% 1,2-pentanediol, 5 wt.-% glycerin (99.5%), 91.50 wt.-% water, solvent at 17.5-18.5° C., stirred at 500 rpm at 20-21° C.

Compound	ability to kill Aspergillus brasiliensis (Aspergillus brasiliensis)	ability to restrain Pseudomonas aeruginosa (Pseudomonas aeruginosa)	Time needed until purified 4-HAP is fully dissolved [1]	dissolution time in cold 1,2-pentanediol (5 wt.-%) in water (in words, compared with the other samples) ([1]; cold 1,2-pentanediol (5 wt.-%) in water)	Time needed until purified 4-HAP is fully dissolved [2]	dissolution time in cold water (in words, compared with the other samples) [2]	Time needed until purified 4-HAP is fully dissolved [3]	dissolution time in cold 1,2-pentanediol (3 wt.-%) and glycerin (5 wt.-%) in water (in words, compared with the other samples) [3]
CC(=O)c1ccc(O)cc1 [4-hydroxyacetophenone]	great ability to kill	a certain ability to restrain						
CC(=O)c1ccc(O)cc1 [Example 1a, 4-hydroxyacetophenone]			12 min	by far the shortest dissolution time	24 min	by far the shortest dissolution time	15 min	by far the shortest dissolution time
CC(=O)c1ccc(O)cc1 [Example 1b, 4-hydroxyacetophenone]					22 min	by far the shortest dissolution time	19 min	by far the shortest dissolution time
CC(=O)c1ccc(O)cc1 [Example 2, 4-hydroxyacetophenone]			56 min		115 min		53 min	
CC(=O)c1ccc(O)cc1 [Example 3, 4-hydroxyacetophenone]			22 min		35 min		30 min	
CC(=O)c1ccc(O)cc1 [Example 4, 4-hydroxyacetophenone]			33 min		41 min		24 min	
CC(=O)c1ccc(O)cc1 [Example 5, 4-hydroxyacetophenone]			26 min		35 min		22 min	
CC(=O)c1ccc(O)cc1 [Example 6, 4-hydroxyacetophenone]			35 min				28 min	
CC(=O)c1ccc(O)cc1 [Example 7, 4-hydroxyacetophenone]			36 min		51 min		33 min	
CC(=O)c1ccc(O)cc1 [Example 8, 4-hydroxyacetophenone]			29 min		44 min		27 min	
CC(=O)c1ccc(O)cc1 [Example 9, 4-hydroxyacetophenone]			17 min		29 min		21 min	
CC(=O)c1ccc(O)cc1 [Example 10, 4-hydroxyacetophenone]					67 min		42 min	
